Test system: trypsin
Test: Evaluation of leupeptin-binding ability on trypsin-immobilized chip by surface plasmon resonance
Conditions: 10 min after initiation of replacement
Experimental: The solution in the above-describe dextran measurement chip was removed therefrom. Thereafter, 70 μl of a mixed solution consisting of 200 mM EDC (N-ethyl-N′-(3-dimethylaminopropyl)carbodiimide hydrochloride) and 50 mM NHS (N-hydroxysuccinimide) was added to the measurement chip, and it was then left for 10 minutes. The mixed solution was removed from the measurement chip, and the chip was then washed with 100 μl of water 3 times, and then with 100 μl of buffer 1 (100 mM HEPES (N-2-hydroxyethylpiperazin-N′-2-ethanesulfonic acid), 150 mM NaCl, 10 mM CaCl2) 3 times. The chip containing 100 μl of buffer 1 was installed in the surface plasmon resonance measurement device of the present invention. The inside of the chip was replaced with a trypsin solution (produced by dissolving trypsin in buffer 1 to a concentration of 1 mg/ml), and it was then left for 30 minutes, so as to immobilize trypsin. Thereafter, the inside of the chip was replaced with a 1 M ethanolamine solution, and it was then left for 10 minutes. Thereafter, the inside of the chip was washed with 100 μl of buffer 1 ten times. The amount of a change in resonance signals due to immobilization of trypsin was 2,000 RU.
With regard to the trypsin-immobilized chip of the present invention, the dielectric block was capped with silicon rubber, so as to produce a cell with an internal volume of 15 μl. In the case of such a block cell, the volume of the cell is determined with a space surrounded by the measurement chip and the cap. Two holes each having a diameter of 1 mm were formed through the silicon rubber used as a cap, and a Teflon tube having an inside diameter of 0.5 mm and an outside diameter of 1 mm was passed through each of these holes, so as to produce a flow channel. Likewise, a cap and a flow channel were produced for a reference chip. Thereafter, the two chips were connected in series, so as to produce a flow channel system. Each of the two chips in this flow channel system was installed in the surface plasmon resonance measurement device of the present invention.
The inside of the flow channel system was filled with buffer 2 (10 mM HEPES, 150 mM NaCl). Defining the state before the exchange of the liquid as a standard, a change in signals was measured at intervals of 0.5 seconds. The inside of the flow channel system was replaced with a leupeptin solution produced by dissolving leupeptin in buffer 2 to a concentration of 1 μg/ml) by each method described in Table 1. The level of noise generated on the reference chip side at 2 to 10 minutes after initiation of the replacement, and changes in signals on the trypsin-immobilized chip side and on the reference chip side at 10 minutes after initiation of the replacement, are shown in Table 1. In order to obtain binding detection data with high reliability, it is preferable that the width of noise level (the difference between the maximum and the minimum in a change in signals) be within 10 RU, and that the base line fluctuation, that is, the change in signals on the reference chip side be within 10 RU. More preferably, the above values are both within 5 RU.
The inside of the flow channel system was filled with buffer 2 (10 mM HBPES, 150 mM NaCl). Defining the state before the exchange of the liquid as a standard, a change in signals was measured at intervals of 0.5 seconds. The inside of the flow channel system was replaced with a leupeptin solution (produced by dissolving leupeptin in buffer 2 to a concentration of 1 μg ml) by each method described in Table 2. The level of noise generated on the reference chip side at 2 to 10 minutes after initiation of the replacement, and changes in signals on the trypsin-immobilized chip side and on the reference chip side at 10 minutes after initiation of the replacement, are shown in Table 2. […]

## CC(=O)N[C@@H](CC(C)C)C(=O)N[C@@H](CC(C)C)C(=O)N[C@H](C=O)CCCNC(=N)N [leupeptin]
Table 1 method No. 1: leupeptin 1 μg/ml, flow 4 ml/min, exchange 0.125 min, termination 9.875 min, Ve/Vs 16.7
  Signal change Immobilized chip: 19 RU
Table 1 method No. 2: leupeptin 1 μg/ml, flow 4 ml/min, exchange 0.25 min, termination 9.75 min, Ve/Vs 33.3
  Signal change Immobilized chip: 21 RU
Table 1 method No. 3: leupeptin 1 μg/ml, flow 4 ml/min, exchange 1 min, termination 9 min, Ve/Vs 133.3
  Signal change Immobilized chip: 20 RU
Table 1 method No. 4: leupeptin 1 μg/ml, flow 4 ml/min, exchange 1.5 min, termination 8.5 min, Ve/Vs 200.0
  Signal change Immobilized chip: 21 RU
Table 1 method No. 5 (comparative): leupeptin 1 μg/ml, flow 4 ml/min, exchange 10 min, termination 0 min, Ve/Vs 1333.3
  Signal change Immobilized chip: 12 RU
Table 1 method No. 6 (comparative): leupeptin 1 μg/ml, flow 2 ml/min, exchange 10 min, termination 0 min, Ve/Vs 666.7
  Signal change Immobilized chip: 25 RU
Table 1 method No. 7 (comparative): leupeptin 1 μg/ml, flow 1 ml/min, exchange 10 min, termination 0 min, Ve/Vs 333.3
  Signal change Immobilized chip: 18 RU
Table 1 method No. 8 (comparative): leupeptin 1 μg/ml, flow 0.5 ml/min, exchange 10 min, termination 0 min, Ve/Vs 166.7
  Signal change Immobilized chip: 26 RU
Table 2 method No. 1: leupeptin 1 μg ml, flow 4 ml/min, exchange 0.125 min, termination 9.875 min, Ve/Vs 16.7
  Signal change Immobilized chip: 19 RU
Table 2 method No. 2: leupeptin 1 μg ml, flow 4 ml/min, exchange 0.25 min, termination 9.75 min, Ve/Vs 33.3
  Signal change Immobilized chip: 21 RU
Table 2 method No. 3 (comparative): leupeptin 1 μg ml, flow 4 ml/min, exchange 10 min, termination 0 min, Ve/Vs 1333.3
  Signal change Immobilized chip: 12 RU
Table 2 method No. 4 (comparative): leupeptin 1 μg ml, flow 2 ml/min, exchange 10 min, termination 0 min, Ve/Vs 666.7
  Signal change Immobilized chip: 25 RU
Table 2 method No. 5 (comparative): leupeptin 1 μg ml, flow 1 ml/min, exchange 10 min, termination 0 min, Ve/Vs 333.3
  Signal change Immobilized chip: 18 RU
Table 2 method No. 6 (comparative): leupeptin 1 μg ml, flow 0.5 ml/min, exchange 10 min, termination 0 min, Ve/Vs 166.7
  Signal change Immobilized chip: 26 RU
Table 2 method No. 7: leupeptin 1 μg ml, flow 0.2 ml/min, exchange 10 min, termination 0 min, Ve/Vs 66.7
  Signal change Immobilized chip: 22 RU
Table 2 method No. 8: leupeptin 1 μg ml, flow 0.1 ml/min, exchange 10 min, termination 0 min, Ve/Vs 33.3
  Signal change Immobilized chip: 20 RU

Source: US20050146723A1, “Method for measuring surface plasmon resonance” (FUJI PHOTO FILM CO., LTD., priority 2003, published 2005)
